# In publication PMC5590106 (Biochemical and biophysical research communications, 2017):
# Key:
# Format in all cases: biochemical
# [1] = biological target: T1, C. elegans CED-3 (crude lysate, CED-3L) (Caenorhabditis elegans, UniProt P42573); experiment: CED-3 fluorogenic assay
# T1 sequence (P42573 221-374 limits assumed): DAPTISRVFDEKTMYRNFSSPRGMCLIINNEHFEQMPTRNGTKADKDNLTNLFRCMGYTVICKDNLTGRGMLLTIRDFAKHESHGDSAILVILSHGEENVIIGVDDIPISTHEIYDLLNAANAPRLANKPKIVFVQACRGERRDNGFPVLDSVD
# T1 sequence (P42573 389-503 limits assumed): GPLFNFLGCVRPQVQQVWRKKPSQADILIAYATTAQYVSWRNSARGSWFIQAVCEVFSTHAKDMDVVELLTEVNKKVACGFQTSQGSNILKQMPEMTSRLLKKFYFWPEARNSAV
# [2] = biological target: T2, purified C. elegans CED-3 (Caenorhabditis elegans, UniProt P42573); experiment: CED-3 fluorogenic assay; conditions: for Purified CED-3 Hill Slope Value: determined by XLfit in ActivityBase
# T2 sequence (P42573 221-374 limits assumed): T1 sequence (P42573 221-374 limits assumed)
# T2 sequence (P42573 389-503 limits assumed): T1 sequence (P42573 389-503 limits assumed)
# Human Caspase 3 (HCASP3) = biological target: T3, Human Caspase 3 (HCASP3) (Homo sapiens, UniProt P42574); experiment: Human caspase-3 fluorogenic assay
# T3 sequence (P42574 29-175 limits assumed): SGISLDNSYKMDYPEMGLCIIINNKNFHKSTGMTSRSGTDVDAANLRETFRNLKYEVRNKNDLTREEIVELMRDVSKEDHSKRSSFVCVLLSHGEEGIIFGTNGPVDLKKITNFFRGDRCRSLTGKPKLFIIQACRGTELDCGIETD
# T3 sequence (P42574 176-277 limits assumed): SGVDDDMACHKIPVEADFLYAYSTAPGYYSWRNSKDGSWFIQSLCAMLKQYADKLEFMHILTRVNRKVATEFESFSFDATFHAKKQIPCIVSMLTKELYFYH
Structure (SMILES),IC50 [1] [µM],IC50 [2] [µM],Purified CED-3 Hill Slope Value [2],also measured
"CC(=O)N[C@@H](CC(=O)O)C(=O)N[C@@H](CCC(=O)O)C(=O)N[C@H](C(=O)N[C@H](C=O)CC(=O)O)C(C)C [Ac-DEVD-CHO, reference compound]",0.0019,0.0027,–,"calculated Hill slope on CED-3L ([1]; crude lysate, Fig. 1A): −0.994"
O=C(/C=C/c1ccccc1)NNC1=NS(=O)(=O)c2ccccc21 [BAS01847186],–,–,–,potency on HCASP3 compared to CED-3 (Human Caspase 3 (HCASP3)): as potent or more so on HCASP3
CCCOC(=O)/C(=C\C=C\c1ccco1)NC(=O)c1ccccc1 [BAS 00187854],34.7,14.6,1.27,–
CC(=O)c1ccc(-c2ccc(/C=C3/SC(=S)NC3=O)o2)cc1 [BAS 00253468],21,9,1.79,–
COc1ccc(N2C(=O)/C(=C/c3ccco3)C(=O)NC2=S)cc1 [BAS 00519146],–,–,1.6,"IC50 (Human Caspase 3 (HCASP3); read-out: IC50 HCASP-3, purified HCASP3, Fig. 3C): 10.8 µM"
O=C(/C=C/c1ccco1)c1ccc(NC(=O)c2cccs2)cc1 [BAS 00835000],30,4.9,1.38,–
O=C1NC(=S)N(c2ccc(F)cc2)C(=O)/C1=C/c1ccco1 [BAS 01202237],–,–,1.5,–
Nc1ccc(N2Cc3ccccc3C2)cc1 [BAS 01988614],43.1,13.6,0.62,–
O=c1cc2oc3cc(O)c(O)cc3c(-c3ccccn3)c-2cc1O [BAS 05223612],24.5,3.9,1.7,"inhibition of CED-3 (in words) [2]: inhibited; inhibition of HCASP3 (in words) (Human Caspase 3 (HCASP3); dose-response, at the concentrations tested): inhibited"
